We go through three compounds from patent US20240246942A1, “KINASE INHIBITORS FOR THE TREATMENT OF NEURODEGENERATIVE DISEASES” (priority 2020, published 2024).

Common to all, as to test: biochemical
For experiment [1], the target named is T1, panel of 374 wild-type kinases (Homo sapiens, UniProt Q9NQU5).
T1 construct: purchased Reaction Biology Corporation
The settings on record: read-out: % Enzyme Activity (relative to DMSO controls), kinase PAK6.

The target of experiment [2] is T2, panel of 374 wild-type kinases (Homo sapiens, UniProt O95835).
T2 construct: purchased Reaction Biology Corporation
T2 sequence (O95835 1-1130): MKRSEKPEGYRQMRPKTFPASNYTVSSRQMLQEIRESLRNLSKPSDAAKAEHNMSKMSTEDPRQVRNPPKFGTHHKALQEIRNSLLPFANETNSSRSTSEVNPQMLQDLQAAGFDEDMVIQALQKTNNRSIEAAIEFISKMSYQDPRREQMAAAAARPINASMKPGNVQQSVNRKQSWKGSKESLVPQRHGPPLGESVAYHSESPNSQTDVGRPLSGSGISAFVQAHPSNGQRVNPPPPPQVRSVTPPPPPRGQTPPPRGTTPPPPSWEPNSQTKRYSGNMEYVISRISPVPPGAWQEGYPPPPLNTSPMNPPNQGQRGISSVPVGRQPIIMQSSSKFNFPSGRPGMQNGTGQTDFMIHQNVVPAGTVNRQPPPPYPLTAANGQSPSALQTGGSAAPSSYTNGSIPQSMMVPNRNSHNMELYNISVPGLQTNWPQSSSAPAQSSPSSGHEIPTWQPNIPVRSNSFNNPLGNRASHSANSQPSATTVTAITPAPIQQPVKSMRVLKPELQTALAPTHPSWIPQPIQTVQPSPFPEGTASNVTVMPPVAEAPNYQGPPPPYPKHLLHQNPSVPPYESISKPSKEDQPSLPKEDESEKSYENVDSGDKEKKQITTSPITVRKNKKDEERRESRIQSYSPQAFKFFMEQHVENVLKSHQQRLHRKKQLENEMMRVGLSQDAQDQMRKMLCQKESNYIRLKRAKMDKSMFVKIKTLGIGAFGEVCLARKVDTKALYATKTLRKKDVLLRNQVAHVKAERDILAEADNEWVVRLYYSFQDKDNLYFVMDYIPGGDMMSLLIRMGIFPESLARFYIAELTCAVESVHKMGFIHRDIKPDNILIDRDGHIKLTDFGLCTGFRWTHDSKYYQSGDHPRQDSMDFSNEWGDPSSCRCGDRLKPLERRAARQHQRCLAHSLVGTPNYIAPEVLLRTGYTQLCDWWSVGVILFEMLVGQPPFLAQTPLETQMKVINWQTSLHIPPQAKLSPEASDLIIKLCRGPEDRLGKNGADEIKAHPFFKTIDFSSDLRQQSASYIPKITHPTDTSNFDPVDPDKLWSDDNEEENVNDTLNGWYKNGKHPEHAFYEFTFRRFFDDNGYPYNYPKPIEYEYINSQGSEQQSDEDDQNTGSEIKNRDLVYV
The settings on record: read-out: % Enzyme Activity (relative to DMSO controls), LATS1.

Experiment [3] has as its target T3, panel of 374 wild-type kinases (Homo sapiens, UniProt Q9HBH9).
T3 construct: purchased Reaction Biology Corporation
The settings on record: read-out: % Enzyme Activity (relative to DMSO controls), MNK2.

Experiment [4] has as its target T4, panel of 374 wild-type kinases (Homo sapiens, UniProt P35916).
T4 construct: purchased Reaction Biology Corporation
The settings on record: read-out: % Enzyme Activity (relative to DMSO controls), FLT4/VEGFR3.

Experiment [5] has as its target T5, panel of 374 wild-type kinases (Homo sapiens, UniProt Q13627).
T5 construct: purchased Reaction Biology Corporation
Conditions: read-out: % Enzyme Activity (relative to DMSO controls), DYRK1/DYRK1A.

The target in experiment [6] is T6, panel of 374 wild-type kinases (Homo sapiens, UniProt P29323).
T6 construct: purchased Reaction Biology Corporation
T6 sequence (P29323 19-1055): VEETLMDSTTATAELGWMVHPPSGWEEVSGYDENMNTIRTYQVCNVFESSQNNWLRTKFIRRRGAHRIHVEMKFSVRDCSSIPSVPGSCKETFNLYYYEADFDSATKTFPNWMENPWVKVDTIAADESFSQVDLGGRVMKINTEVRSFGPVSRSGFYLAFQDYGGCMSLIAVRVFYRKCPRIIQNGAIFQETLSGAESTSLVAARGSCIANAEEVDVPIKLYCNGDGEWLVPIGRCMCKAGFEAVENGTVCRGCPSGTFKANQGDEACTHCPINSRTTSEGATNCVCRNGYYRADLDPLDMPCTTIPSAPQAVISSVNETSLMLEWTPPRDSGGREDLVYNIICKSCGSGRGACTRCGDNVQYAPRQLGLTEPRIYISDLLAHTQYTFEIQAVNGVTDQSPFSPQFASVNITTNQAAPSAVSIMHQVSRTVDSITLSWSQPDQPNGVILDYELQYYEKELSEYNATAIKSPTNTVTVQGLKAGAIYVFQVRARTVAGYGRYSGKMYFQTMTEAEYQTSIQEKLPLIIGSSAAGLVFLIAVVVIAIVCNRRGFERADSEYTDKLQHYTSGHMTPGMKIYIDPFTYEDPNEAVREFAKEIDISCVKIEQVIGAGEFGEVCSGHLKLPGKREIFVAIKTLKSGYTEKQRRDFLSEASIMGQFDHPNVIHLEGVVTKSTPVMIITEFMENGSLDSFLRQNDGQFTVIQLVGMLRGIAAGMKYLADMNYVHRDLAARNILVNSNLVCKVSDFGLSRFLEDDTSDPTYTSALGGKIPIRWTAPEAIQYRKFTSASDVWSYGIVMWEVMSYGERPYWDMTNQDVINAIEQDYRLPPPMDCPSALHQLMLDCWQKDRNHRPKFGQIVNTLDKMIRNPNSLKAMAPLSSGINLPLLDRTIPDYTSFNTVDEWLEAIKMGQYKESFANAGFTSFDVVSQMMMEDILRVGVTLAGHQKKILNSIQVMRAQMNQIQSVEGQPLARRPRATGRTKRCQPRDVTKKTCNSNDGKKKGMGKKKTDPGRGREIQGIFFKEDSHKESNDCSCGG
Conditions: read-out: % Enzyme Activity (relative to DMSO controls), EPHB2.

Molecules are shown by their SMILES.

T4 sequence (P35916 25-1363): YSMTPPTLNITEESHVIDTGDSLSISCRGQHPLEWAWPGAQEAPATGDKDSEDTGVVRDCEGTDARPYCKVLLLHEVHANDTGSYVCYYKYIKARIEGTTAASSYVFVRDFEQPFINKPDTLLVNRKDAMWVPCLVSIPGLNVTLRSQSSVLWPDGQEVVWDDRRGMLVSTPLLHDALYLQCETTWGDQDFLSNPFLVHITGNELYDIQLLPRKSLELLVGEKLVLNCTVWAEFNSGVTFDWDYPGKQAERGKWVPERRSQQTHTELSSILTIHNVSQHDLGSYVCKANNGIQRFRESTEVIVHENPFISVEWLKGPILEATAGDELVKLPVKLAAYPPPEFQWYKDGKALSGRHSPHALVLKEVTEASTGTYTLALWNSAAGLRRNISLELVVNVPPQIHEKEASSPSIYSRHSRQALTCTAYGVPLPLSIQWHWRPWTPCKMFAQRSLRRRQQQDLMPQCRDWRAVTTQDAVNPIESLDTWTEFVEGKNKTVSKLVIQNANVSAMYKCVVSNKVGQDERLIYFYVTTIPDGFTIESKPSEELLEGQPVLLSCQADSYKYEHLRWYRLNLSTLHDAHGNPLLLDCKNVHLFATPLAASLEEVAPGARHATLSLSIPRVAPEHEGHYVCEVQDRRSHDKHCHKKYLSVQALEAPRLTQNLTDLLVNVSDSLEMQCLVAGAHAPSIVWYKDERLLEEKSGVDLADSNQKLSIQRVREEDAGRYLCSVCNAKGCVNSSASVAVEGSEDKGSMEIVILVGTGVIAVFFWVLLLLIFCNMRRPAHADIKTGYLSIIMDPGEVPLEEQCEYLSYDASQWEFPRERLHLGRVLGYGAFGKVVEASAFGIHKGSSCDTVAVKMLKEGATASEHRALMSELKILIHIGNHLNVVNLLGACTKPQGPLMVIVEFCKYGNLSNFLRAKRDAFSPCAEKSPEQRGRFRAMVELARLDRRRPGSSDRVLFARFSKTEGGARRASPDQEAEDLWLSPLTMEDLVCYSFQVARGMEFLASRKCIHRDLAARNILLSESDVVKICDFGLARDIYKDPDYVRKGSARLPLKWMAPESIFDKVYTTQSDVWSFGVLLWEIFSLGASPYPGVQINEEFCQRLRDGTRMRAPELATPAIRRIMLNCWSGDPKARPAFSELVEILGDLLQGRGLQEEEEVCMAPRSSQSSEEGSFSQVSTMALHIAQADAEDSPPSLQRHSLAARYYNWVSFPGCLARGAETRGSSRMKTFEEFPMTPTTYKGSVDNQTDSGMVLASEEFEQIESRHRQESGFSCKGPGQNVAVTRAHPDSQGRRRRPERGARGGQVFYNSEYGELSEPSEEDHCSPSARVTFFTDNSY
T3 sequence (Q9HBH9 whole entry): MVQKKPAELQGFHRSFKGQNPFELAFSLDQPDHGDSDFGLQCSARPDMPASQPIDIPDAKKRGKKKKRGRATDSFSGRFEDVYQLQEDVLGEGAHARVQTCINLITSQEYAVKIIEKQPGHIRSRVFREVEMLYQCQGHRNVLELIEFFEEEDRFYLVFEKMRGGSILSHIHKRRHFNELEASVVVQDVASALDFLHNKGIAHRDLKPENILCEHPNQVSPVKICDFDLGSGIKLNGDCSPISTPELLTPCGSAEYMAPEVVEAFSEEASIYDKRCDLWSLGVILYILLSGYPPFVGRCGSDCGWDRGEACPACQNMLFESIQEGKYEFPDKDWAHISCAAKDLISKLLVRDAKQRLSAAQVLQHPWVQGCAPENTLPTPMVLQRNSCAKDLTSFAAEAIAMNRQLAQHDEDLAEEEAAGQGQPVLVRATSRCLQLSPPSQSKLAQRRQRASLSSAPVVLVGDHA
T1 sequence (Q9NQU5 whole entry): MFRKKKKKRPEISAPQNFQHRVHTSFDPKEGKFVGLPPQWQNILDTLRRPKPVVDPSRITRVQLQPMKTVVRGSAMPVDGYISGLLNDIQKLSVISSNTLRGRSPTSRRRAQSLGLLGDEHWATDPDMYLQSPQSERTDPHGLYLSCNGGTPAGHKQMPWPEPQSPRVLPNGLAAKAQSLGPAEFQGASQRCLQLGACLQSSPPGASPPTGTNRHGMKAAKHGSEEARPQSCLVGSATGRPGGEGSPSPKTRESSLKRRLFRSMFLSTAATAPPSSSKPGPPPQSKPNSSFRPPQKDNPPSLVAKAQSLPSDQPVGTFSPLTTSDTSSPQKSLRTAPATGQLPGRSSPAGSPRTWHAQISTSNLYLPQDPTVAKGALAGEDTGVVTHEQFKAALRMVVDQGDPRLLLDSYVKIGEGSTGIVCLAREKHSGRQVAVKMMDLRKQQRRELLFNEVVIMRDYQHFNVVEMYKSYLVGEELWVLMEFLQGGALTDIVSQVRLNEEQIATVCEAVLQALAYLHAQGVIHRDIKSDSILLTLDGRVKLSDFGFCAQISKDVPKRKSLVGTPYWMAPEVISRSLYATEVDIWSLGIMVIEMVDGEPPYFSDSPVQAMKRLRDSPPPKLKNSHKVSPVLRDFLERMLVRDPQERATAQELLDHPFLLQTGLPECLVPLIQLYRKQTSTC

As for `Cc1sc(C(=O)NC2COC2)cc1-n1cc(NC(=O)Nc2c(F)cccc2Cl)cn1` [Compound 27, 4-(4-(3-(2-chloro-6-fluorophenyl)ureido)-1H-pyrazol-1-yl)-5-methyl-N-(oxetan-3-yl)thiophene-2-carboxamide], the remaining activity at 10 µM in experiment [1] (10 uM) came out at 99.9%; in experiment [2] (10 uM), 97.2%; in experiment [3] (10 uM), 83.4%; in experiment [4] (10 uM), 81.9%; in experiment [5] (10 uM), 95.5%; in experiment [6] (10 uM), 109%.

In the case of `O=C(Nc1cnn(-c2csc(C(=O)NC3COC3)c2)c1)Nc1c(F)cccc1Cl` [Compound 25, 4-(4-(3-(2-chloro-6-fluorophenyl)ureido)-1H-pyrazol-1-yl)-N-(oxetan-3-yl)thiophene-2-carboxamide], the remaining activity at 5 µM in experiment [1] stood at 92.9%; in experiment [2], 93.5%; in experiment [3] it was 90.8%; in experiment [4], 86.6%; in experiment [5] it was 75.1%; in experiment [6] it was 99.9%.

As to `O=C(Nc1cnn(-c2csc(C(=O)NC3COC3)c2)c1)Nc1ccccc1Cl` [Compound 17, 4-(4-(3-(2-chlorophenyl)ureido)-1H-pyrazol-1-yl)-N-(oxetan-3-yl)thiophene-2-carboxamide], the remaining activity at 5 µM in experiment [1] turned out to be 131%; in experiment [2], 106%; in experiment [3] it was 99.3%; in experiment [4], 93.8%; in experiment [5], 86%; in experiment [6], 101%.
